Where “and” joins values, the source holds several entries; their conditions need not be identical. Equal entries are not always repeated. Calls of active or inactive are those of the source.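 Rule for the calls: active = compounds raising the signal whose fitted half-maximal concentration is at or below their top tested dose (cut at about 25 µM in these data); inconclusive = flat fit at 30 to 70% activity, or a poor fit; inactive = the rest.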

As a reminder, the AC50 is the concentration giving half of the maximal activity seen.

The assay has as its system INS-1E rat beta cells, no cytokines, CellTiter-Glo ATP, 48 h. Briefly: ATP level change in INS-1E without cytokines, dose response, counter-screen for beta-cell apoptosis protection project, INS-1E rat cells, ATP luminescence, cherry pick (AID 463229). (A counterscreen serves to expose hits that act by an unwanted route or on another target.)
As for `Cc1cccc(NC2=C/C(=N/S(=O)(=O)c3cccs3)c3ccccc3C2=O)c1`, the AC50 was 3.97 µM. As for `Oc1ccccc1C(Nc1nccs1)c1ccc2cccnc2c1O` (stereo not given), the figure is 4.91 µM. In the case of `CCOC(=O)N1CCC(NC(=O)C2CCCN(Cc3nc(-c4cccc(Cl)c4)oc3C)C2)CC1` (stereo not given), the AC50 was 6.01 µM.

For the molecule `CCCCCCCC(=O)Nc1ccc(C(=O)N/N=C/c2cccc([N+](=O)[O-])c2)cc1`, the AC50 was 6.63 µM. As for `O=C1C(C2=NC(c3ccccn3)C3C(=O)N(c4ccc(OC(F)(F)F)cc4)C(=O)C23)=C(O)c2ccccc21` (stereo not given), the figure is 5.94 µM.

As for `COc1ccccc1NC(=O)CN(c1ccc(C23CC4CC(CC(C4)C2)C3)cc1)S(C)(=O)=O`, the AC50 was 5.11 µM. In the case of `C/C(=N\NC(=O)c1ccc(Cl)cc1)c1ccccn1` it was 1.62 µM; in that of `Nc1nc(F)nc2c1ncn2[C@@H]1O[C@H](CO)[C@@H](O)[C@H]1O`, 0.699 µM; in that of `CCCC[C@@H](CN[C@H](C)CNC)NCC1CCC(C(C)(C)C)CC1` (stereo not given in full), 15 µM. As for `CCCCCCn1c2c(c(=N)c3c1CCC3)CCC2`, the figure is 1.88 µM. As for `O=C(CNc1cccc2ccccc12)N/N=C/c1ccc([N+](=O)[O-])o1`, the figure is 11.5 µM. `CC1CCc2c(sc3nc(C4CC4)nc(N4CCN(C(=O)c5ccco5)CC4)c23)C1` (stereo not given): the AC50 was 3.01 µM.

`O=C(Nc1ccc(Cl)cc1)Nc1csc([N+](=O)[O-])c1`: the AC50 is 7.65 µM.

On to `Cc1ccc(-c2cc(-c3ccccc3)cc(-c3ccccc3)[n+]2-c2ccccc2)cc1`, for which the AC50 is 2.08 µM.

As for `O=C(/C=C/c1ccc(F)cc1)NC(=S)NNC(=O)c1cnccn1`, the half-maximal activity concentration (AC50) was 5.29 µM.

As for `Cc1ccc(C2CC(c3ccc(C)cc3)n3nc(N)nc3N2)cc1` (stereo not given), the AC50 was 17.9 µM. As for `CCCCSc1ccc(NC(=O)c2cccnc2)cc1`, the figure is 14.7 µM; as for `CCC(C)c1ccc(NC(=S)NC2CCN(Cc3ccccc3)CC2)cc1` (stereo not given), 10.4 µM.

Consider `CCCNC(=O)c1ccc2c(=O)c(O)c(-c3ccc(Cl)c([N+](=O)[O-])c3)[nH]c2c1`, for which the AC50 was 10.8 µM. In the case of `CCN1C/C(=C/c2ccc(OC)c(O)c2)C(=O)/C(=C/c2ccc(OC)c(O)c2)C1` it was 4.92 µM; in that of `COc1cccc(/C=N/Nc2cc(N3CCOCC3)ncn2)c1O`, 14.2 µM. In the case of `O=C1C(Cl)=C(NCc2cccnc2)C(=O)c2ccccc21` it was 14.3 µM; in that of `COc1cccc(/C=N/Nc2nc(Nc3ccccc3)nc(-n3nc(C)cc3C)n2)c1O`, 12.3 µM. In the case of `Cc1ccc(-c2csc(NC(=O)c3c(C)noc3C)n2)s1` it was 4.85 µM; in that of `O=C(NCc1cccnc1)c1ccc(NC(=O)c2cccc([N+](=O)[O-])c2)cc1`, 0.205 µM. For `CC(C)(C)c1ccc(/C=C(\c2nc3ccccc3[nH]2)S(=O)(=O)c2ccccc2)cc1`, the AC50 was 7.37 µM. In the case of `CCOC(=O)c1c(C)[nH]c(C(=O)N/N=C\c2ccccc2O)c1C` it was 6.52 µM; in that of `Cc1cc(C)c(C)c(S(=O)(=O)N2CCN(c3ncnc4ccccc34)CC2)c1C`, 6.34 µM. As for `Cc1ccccc1NC(=S)N/N=C/c1ccc(O)cc1O`, the figure is 14.6 µM; as for `C(=N\Nc1ncnc2sc3c(c12)CCC3)/c1cccs1`, 9.08 µM. As for `COc1ccc(CC(=O)Nc2cccc(S(=O)(=O)N3CCCCCC3)c2)cc1OC`, the figure is 10 µM. Consider `O=C(NC(Nc1nc2ccc([N+](=O)[O-])cc2s1)(C(F)(F)F)C(F)(F)F)c1cccnc1`, for which the AC50 is 2.58 µM. In the case of `O=C(Nc1cccnc1)C1(F)C(F)(F)C(F)(F)C(F)(F)C(F)(F)C1(F)F` it was 3.56 µM; in that of `Cc1[nH]c(N=Nc2ccccc2)nc1N=Nc1ccccc1`, 8.16 µM; in that of `O=C(NCC#CCSc1nnc(-c2cccc3ccccc23)o1)c1cccs1`, 1.9 µM. In the case of `COc1cc(OC)nc(-n2ncc(Br)c(Br)c2=O)n1`, the AC50 was 6.66 µM.

`CCN1CCN(Cc2ccc(NC(=O)c3ccc(C)c(NC(=O)C(=O)c4c[nH]c5ccccc45)c3)cc2C(F)(F)F)CC1`: the AC50 is 13.8 µM and 7.23 µM.

With `C=C(C(=O)c1ccccc1)C(C(=C)C(=O)c1ccccc1)c1ccc(OC)cc1`, the AC50 is 7.54 µM.

`O=S(=O)(c1ccc2nc(Nc3ccccc3)ccc2c1)N1CCCCC1`: the AC50 was 22.4 µM. As for `COc1ccc(C(NC(C)=O)c2cc(Cl)c3cccnc3c2O)cc1OC` (stereo not given), the figure is 7.62 µM; as for `O=S(=O)(c1ccc(Cl)cc1)N1CCN(c2ncnc3sccc23)CC1`, 6.65 µM; as for `O=C(Nc1nc(-c2ccccn2)cs1)c1ccc(Cl)s1`, 4.38 µM. As for `c1ccc(CNc2c3ccccc3nc3ccccc23)cc1`, the figure is 11.5 µM; as for `CCOC(=O)N1CCN(C(=O)CSCC(=O)Nc2nc(-c3ccc(-c4ccccc4)cc3)cs2)CC1`, 4.49 µM; as for `COc1ccccc1NC(=O)c1nc(S(=O)(=O)Cc2ccccc2)ncc1Cl`, 8.64 µM. In the case of `COc1ccc2nc(C)cc(N/N=C/c3ccc(F)cc3)c2c1` it was 7.11 µM; in that of `CCn1c(-c2ccccc2)c(C(=O)CCl)c2ccccc21`, 11.6 µM; in that of `COc1ccc(-c2cc(-c3ccccc3)[n+](C)c(-c3ccccc3)c2)cc1`, 4.28 µM.

For the molecule `Clc1ccc(C[n+]2c(-c3ccccc3)cc(-c3ccccc3)cc2-c2ccccc2)cc1`, the AC50 is 2.01 µM. In the case of `CN(C)CCCNS(=O)(=O)c1ccc(NC2CCCCCC2)c([N+](=O)[O-])c1` it was 7.27 µM; in that of `O=C1/C(=N\S(=O)(=O)c2cccs2)C([n+]2cccc(Cc3ccccc3)c2)=C([O-])c2ccccc21`, 7.28 µM.

As for `Cc1cccc(NC(=O)c2nc(S(=O)(=O)Cc3ccccc3)ncc2Cl)c1`, the AC50 was 15.8 µM. In the case of `CCNC(=O)Nc1cc(S(=O)(=O)Nc2ccc(OC)cc2)ccc1N1CCOCC1` it was 6.84 µM; in that of `COc1cccc(N=Nc2ccc(O)c3ncccc23)c1`, 6.47 µM. In the case of `O=C(Nc1ccc(Cl)cc1)Nc1ccc(Cl)c(Cl)c1`, the concentration at half-maximal activity (AC50) was 6.98 µM. As for `O=C(Nc1ccc(-c2csc(Nc3cccc(C(F)(F)F)c3)n2)cc1)c1cc([N+](=O)[O-])cc(C(F)(F)F)c1`, the figure is 7.63 µM; as for `Cc1ccc2nc(C)c(CN3CCN(c4ccc([N+](=O)[O-])cc4Cl)CC3)n2c1`, 2.92 µM; as for `Cc1ccc(-c2nn(-c3ccccc3)cc2/C=C/C(=O)Nc2cccc(S(N)(=O)=O)c2)cc1`, 2.75 µM. As for `Fc1ccc(CN(Cc2ccccc2)C(c2cccs2)c2nnnn2C2CCCCC2)cc1` (stereo not given), the figure is 5.93 µM.

As to `CC(C)(C)c1nnc(N/N=C/c2cc(Br)ccc2O)n(N)c1=O`, the AC50 is 3.97 µM. In the case of `O=S(=O)(NCc1ccncc1)c1ccc(Br)s1` it was 4.25 µM; in that of `Brc1ccc(N/N=C(/N=Nc2nn[nH]n2)c2ccccc2)cc1`, 3.51 µM; in that of `COc1ccc(C2=NNC(=Nc3cc(S(=O)(=O)N(C)C)ccc3C)SC2)c(OC)c1`, 3.06 µM. In the case of `C/C(=N\NC(=O)c1ccc(NS(=O)(=O)c2cccs2)cc1)c1ccccn1` it was 13.3 µM; in that of `COc1ccccc1/C=C1\SC(=O)N(CCC(=O)NCCCn2ccnc2)C1=O`, 8.2 µM; in that of `Brc1ccc(CN2CCN(Cc3c[nH]c4ccccc34)CC2)cc1`, 6.91 µM. As for `O=[N+]([O-])c1ccc(O)c(/C=N/Nc2nc3ccccc3[nH]2)c1`, the figure is 2.01 µM. As for `Cc1ccc(C)c(-c2csc(NC(=O)C3=COCCO3)n2)c1`, the AC50 is 7.67 µM. In the case of `N#Cc1c2ccc([N+](=O)[O-])cc2[n+]([O-])n1-c1ccccc1`, the AC50 is 5.32 µM. Regarding `COc1ccc2nc3cc(Cl)ccc3c(Nc3cc(CN4CCCC4)c(O)c(CN4CCCC4)c3)c2n1`, the concentration at half-maximal activity (AC50) was 19.5 µM.

In the case of `Cc1cc(C(=O)C(C)OC(=O)c2ccc(NC(=O)CC#N)cc2)c(C)n1-c1ccc(OC(F)F)cc1` (stereo not given), the AC50 was 8.14 µM. In the case of `N#Cc1ccc(C(=O)Nc2nc(-c3cccs3)c(C(=O)C(F)(F)F)s2)cc1` it was 4.37 µM; in that of `CC[N+]1=C(C)C(C)(C)c2cc(C)ccc21`, 8.15 µM. As for `N=c1c2ccccc2nc2n1CCCCCCCCCCC2`, the figure is 13.9 µM. In the case of `CCc1ccc(-c2nn(-c3ccccc3)cc2CSC(=N)N)cc1` it was 8.32 µM; in that of `O=C(N/N=C\c1cc(Br)ccc1O)c1ccc(S(=O)(=O)N2CCCCC2)cc1`, 3.54 µM; in that of `CC1(C)CC(=O)C2=C(C1)OC1=C(C(=O)CC(C)(C)C1)C2c1ccc(O)cc1O`, 7.31 µM.

On to `CCOC(=O)CC1CCCCN1C(=O)c1cc(COc2cccc3cnccc23)on1` (stereo not given), for which the half-maximal activity concentration (AC50) was 8.19 µM.

With `Cc1ccc2c(c1)nnn2C1CCN(S(=O)(=O)c2ccc(C(=O)N3C(C)CCCC3C)cc2)CC1` (stereo not given), the AC50 was 7.75 µM. Take `Oc1c(C(Nc2ccccn2)c2ccccn2)ccc2cccnc12` (stereo not given): the concentration at half-maximal activity (AC50) was 6.16 µM. As for `CCN(CC)c1ccc(/C=N/N(c2ccccc2)c2ccccc2)c(O)c1`, the figure is 4.58 µM; as for `COC(=O)c1sc(-c2ccc(C(C)(C)C)cc2)cc1NC(=O)/C=C/C(=O)O`, 13.8 µM; as for `Cc1ccc2c(c1)S/C(=C/c1ccc[n+](CCO)c1)N2C`, 3 µM. In the case of `Cc1[nH]n(-c2ccc(Br)cc2)c(=O)c1/C=N/NC(=O)c1ccccc1` it was 2.13 µM; in that of `CN(C)c1cc[n+](Cc2c(Cl)cccc2Cl)cc1`, 6.3 µM; in that of `c1ccc2c(CN3CCCCCC3)c[nH]c2c1`, 3.61 µM. In the case of `C/C(=N\NC(=O)COc1ccccc1-c1ccccc1)c1ccc(O)cc1O` it was 10.5 µM; in that of `C/C(=N\NC(=O)c1cc(C)nc2ccccc12)c1ccccn1`, 2.83 µM. Take `CCOC(=O)c1sc(NC(=O)c2c(C)nn(Cc3ccccc3)c2C)cc1C`: the AC50 is > 26 µM (inactive). As for `O=C(c1ccc(-c2ccc(Cl)cc2)o1)N1CCN(c2ccc([N+](=O)[O-])cc2Cl)CC1`, the figure is 4.92 µM; as for `Cc1ccc2c(c1)N(C)/C(=C/c1cccc[n+]1CCO)S2`, 3.18 µM; as for `CC(C)N=c1cc2n(-c3ccc(Cl)cc3)c3ccccc3nc-2cc1Nc1ccc(Cl)cc1`, 6.69 µM.

On to `Cc1[nH]c2ccccc2c1CN1CCC(Cc2ccccc2)CC1`, for which the AC50 is 3.99 µM. In the case of `CCC(=NNC(=O)c1ccc2c(c1)nc(C)n2CC)c1cc(F)ccc1O` it was 9.84 µM; in that of `Cn1nc(C(C)(C)C)cc1C(=O)NCc1cc(F)cc2c1OCOC2`, 5.86 µM.

The values are drawn from PubChem BioAssay AID463229 (Broad Institute, 2010).
